Assay results published in the kinase profiling compilation of Christmann-Franck et al. (2016).

Columns and labels:
Settings in all cases: compound 10.0 µM
MAP3K8 (human) = MAP3K8 (human) (UniProt P41279)
CDK7 CCNH MNAT1 (human) = CDK7 CCNH MNAT1 (human) (UniProt P50613+P51948+P51946)
PRKCG (human) = PRKCG (human) (UniProt P05129)
SLK (human) = SLK (human) (UniProt Q9H2G2)
NEK9 (human) = NEK9 (human) (UniProt Q8TD19)
EGFR (human) = EGFR (human) (UniProt P00533)
ROCK1 (human) = ROCK1 (human) (UniProt Q13464)
PTK2B (human) = PTK2B (human) (UniProt Q14289)
CDK3 CCNE1 (human) = CDK3 CCNE1 (human) (UniProt P24864+Q00526)
STK16 (human) = STK16 (human) (UniProt O75716)
SRMS (human) = SRMS (human) (UniProt Q9H3Y6)
MAP4K2 (human) = MAP4K2 (human) (UniProt Q12851)
ROS1 (human) = ROS1 (human) (UniProt P08922)
Chain of ROS1 (human) (P08922 whole entry, looked up): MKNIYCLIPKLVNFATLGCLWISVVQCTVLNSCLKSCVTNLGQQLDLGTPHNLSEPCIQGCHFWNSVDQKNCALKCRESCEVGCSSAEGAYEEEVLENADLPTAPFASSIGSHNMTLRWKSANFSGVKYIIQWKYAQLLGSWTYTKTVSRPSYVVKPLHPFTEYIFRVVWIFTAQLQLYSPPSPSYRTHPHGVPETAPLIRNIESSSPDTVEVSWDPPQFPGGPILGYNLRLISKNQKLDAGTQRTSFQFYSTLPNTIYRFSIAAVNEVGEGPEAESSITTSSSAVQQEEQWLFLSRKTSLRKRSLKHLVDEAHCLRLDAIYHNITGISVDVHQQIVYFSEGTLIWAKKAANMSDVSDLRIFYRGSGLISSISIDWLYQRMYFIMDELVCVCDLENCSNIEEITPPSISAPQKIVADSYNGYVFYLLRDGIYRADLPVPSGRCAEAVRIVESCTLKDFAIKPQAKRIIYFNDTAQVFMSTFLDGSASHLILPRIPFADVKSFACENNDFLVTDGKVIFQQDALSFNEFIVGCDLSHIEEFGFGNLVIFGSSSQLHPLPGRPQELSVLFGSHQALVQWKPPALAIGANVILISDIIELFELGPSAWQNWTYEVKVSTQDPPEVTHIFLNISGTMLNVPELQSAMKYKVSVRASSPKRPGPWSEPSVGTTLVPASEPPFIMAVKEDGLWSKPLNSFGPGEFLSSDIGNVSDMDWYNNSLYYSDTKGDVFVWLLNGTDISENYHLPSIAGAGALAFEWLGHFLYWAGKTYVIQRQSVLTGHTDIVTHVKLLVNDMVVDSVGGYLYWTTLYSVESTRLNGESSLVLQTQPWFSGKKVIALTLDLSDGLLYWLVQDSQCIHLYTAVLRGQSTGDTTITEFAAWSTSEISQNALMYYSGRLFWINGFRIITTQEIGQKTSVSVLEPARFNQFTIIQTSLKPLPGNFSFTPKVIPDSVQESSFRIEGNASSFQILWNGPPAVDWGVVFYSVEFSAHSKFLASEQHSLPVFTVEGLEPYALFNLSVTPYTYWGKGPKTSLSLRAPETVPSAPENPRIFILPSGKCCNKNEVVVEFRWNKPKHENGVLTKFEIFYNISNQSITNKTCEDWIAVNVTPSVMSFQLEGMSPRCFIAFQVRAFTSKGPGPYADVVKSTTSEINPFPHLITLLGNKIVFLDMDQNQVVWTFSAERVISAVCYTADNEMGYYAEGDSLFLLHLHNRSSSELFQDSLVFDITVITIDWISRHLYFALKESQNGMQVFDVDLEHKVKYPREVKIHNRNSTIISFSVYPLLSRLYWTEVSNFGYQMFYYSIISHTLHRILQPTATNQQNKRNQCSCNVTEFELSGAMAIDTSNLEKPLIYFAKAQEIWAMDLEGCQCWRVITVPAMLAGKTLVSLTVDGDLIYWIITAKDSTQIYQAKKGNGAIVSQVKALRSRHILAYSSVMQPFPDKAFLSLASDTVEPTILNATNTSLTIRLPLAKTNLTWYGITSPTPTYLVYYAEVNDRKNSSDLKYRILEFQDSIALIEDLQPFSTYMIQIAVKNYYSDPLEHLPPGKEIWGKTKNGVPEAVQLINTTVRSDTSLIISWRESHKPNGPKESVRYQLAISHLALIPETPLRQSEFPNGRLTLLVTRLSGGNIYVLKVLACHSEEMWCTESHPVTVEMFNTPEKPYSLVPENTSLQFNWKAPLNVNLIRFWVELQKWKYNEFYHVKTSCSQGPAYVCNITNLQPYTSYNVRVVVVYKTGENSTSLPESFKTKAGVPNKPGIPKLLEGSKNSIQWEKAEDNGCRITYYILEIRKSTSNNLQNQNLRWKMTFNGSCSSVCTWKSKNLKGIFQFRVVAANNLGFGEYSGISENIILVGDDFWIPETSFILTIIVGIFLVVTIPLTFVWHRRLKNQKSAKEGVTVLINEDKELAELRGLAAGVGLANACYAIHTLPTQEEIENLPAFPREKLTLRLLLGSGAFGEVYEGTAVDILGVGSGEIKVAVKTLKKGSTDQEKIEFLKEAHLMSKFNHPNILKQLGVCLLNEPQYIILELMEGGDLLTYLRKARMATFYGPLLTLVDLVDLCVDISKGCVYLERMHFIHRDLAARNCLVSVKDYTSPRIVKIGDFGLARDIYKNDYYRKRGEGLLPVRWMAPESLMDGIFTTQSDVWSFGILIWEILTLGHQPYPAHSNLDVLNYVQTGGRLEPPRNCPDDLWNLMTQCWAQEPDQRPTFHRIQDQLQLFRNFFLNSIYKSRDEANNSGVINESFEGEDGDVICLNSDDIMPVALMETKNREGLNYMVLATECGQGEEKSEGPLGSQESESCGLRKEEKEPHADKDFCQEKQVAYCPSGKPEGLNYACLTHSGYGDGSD

WNK2 (human) = WNK2 (human) (UniProt Q9Y3S1)
ULK2 (human) = ULK2 (human) (UniProt Q8IYT8)
DAPK1 (human) = DAPK1 (human) (UniProt P53355)
NTRK3 (human) = NTRK3 (human) (UniProt Q16288)
BLK (human) = BLK (human) (UniProt P51451)
BMX (human) = BMX (human) (UniProt P51813)
CDK1 CCNB1 (human) = CDK1 CCNB1 (human) (UniProt P06493+P14635)
SIK2 (human) = SIK2 (human) (UniProt Q9H0K1)
EPHA5 (human) = EPHA5 (human) (UniProt P54756)
NEK3 (human) = NEK3 (human) (UniProt P51956)
RPS6KA5 KD1 KD2 (human) = RPS6KA5 KD1 KD2 (human) (UniProt O75582)
RAF1 (human) = RAF1 (human) (UniProt P04049)
GRK6 (human) = GRK6 (human) (UniProt P43250)
Chain of GRK6 (human) (P43250 whole entry, looked up): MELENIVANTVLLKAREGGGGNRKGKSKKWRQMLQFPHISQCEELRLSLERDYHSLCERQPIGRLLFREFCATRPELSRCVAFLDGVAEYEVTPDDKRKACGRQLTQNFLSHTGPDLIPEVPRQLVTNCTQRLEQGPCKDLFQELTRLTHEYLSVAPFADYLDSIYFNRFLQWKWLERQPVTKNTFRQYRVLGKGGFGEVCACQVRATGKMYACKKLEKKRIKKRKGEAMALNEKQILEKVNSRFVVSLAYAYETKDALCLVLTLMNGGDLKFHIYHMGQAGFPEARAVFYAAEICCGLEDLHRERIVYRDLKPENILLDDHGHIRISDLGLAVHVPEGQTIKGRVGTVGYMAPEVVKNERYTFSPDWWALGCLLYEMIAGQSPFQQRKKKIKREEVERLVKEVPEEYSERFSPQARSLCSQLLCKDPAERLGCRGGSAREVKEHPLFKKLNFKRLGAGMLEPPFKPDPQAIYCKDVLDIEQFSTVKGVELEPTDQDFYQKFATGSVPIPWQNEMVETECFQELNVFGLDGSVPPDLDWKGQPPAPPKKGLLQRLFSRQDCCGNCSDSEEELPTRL

TXK (human) = TXK (human) (UniProt P42681)
LCK (human) = LCK (human) (UniProt P06239)
Chain of LCK (human) (P06239 whole entry, looked up): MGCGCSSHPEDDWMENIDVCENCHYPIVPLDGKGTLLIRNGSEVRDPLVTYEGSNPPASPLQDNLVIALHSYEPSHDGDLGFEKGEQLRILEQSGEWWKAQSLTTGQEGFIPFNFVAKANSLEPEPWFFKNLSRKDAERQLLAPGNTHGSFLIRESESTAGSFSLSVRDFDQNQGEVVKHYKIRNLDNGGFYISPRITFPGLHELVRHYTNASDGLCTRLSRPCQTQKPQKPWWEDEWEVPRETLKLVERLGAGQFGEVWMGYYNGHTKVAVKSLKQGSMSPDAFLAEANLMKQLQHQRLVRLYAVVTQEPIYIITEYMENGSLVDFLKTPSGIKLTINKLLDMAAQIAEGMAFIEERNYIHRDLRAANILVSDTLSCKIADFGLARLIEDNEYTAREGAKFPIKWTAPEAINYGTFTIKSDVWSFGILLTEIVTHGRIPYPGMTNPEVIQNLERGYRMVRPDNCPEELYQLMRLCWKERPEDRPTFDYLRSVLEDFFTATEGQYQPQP

GRK5 (human) = GRK5 (human) (UniProt P34947)
BTK (human) = BTK (human) (UniProt Q06187)
STK11 (human) = STK11 (human) (UniProt Q15831)
CDK2 CCNE1 (human) = CDK2 CCNE1 (human) (UniProt P24864+P24941)
MAPKAPK5 (human) = MAPKAPK5 (human) (UniProt Q8IW41)
FGFR3 (human) = FGFR3 (human) (UniProt P22607)
EPHB1 (human) = EPHB1 (human) (UniProt P54762)
STK39 (human) = STK39 (human) (UniProt Q9UEW8)
MAP3K10 (human) = MAP3K10 (human) (UniProt Q02779)
AURKB (human) = AURKB (human) (UniProt Q96GD4)
CSF1R (human) = CSF1R (human) (UniProt P07333)
TEK (human) = TEK (human) (UniProt Q02763)
Chain of TEK (human) (Q02763 whole entry, looked up): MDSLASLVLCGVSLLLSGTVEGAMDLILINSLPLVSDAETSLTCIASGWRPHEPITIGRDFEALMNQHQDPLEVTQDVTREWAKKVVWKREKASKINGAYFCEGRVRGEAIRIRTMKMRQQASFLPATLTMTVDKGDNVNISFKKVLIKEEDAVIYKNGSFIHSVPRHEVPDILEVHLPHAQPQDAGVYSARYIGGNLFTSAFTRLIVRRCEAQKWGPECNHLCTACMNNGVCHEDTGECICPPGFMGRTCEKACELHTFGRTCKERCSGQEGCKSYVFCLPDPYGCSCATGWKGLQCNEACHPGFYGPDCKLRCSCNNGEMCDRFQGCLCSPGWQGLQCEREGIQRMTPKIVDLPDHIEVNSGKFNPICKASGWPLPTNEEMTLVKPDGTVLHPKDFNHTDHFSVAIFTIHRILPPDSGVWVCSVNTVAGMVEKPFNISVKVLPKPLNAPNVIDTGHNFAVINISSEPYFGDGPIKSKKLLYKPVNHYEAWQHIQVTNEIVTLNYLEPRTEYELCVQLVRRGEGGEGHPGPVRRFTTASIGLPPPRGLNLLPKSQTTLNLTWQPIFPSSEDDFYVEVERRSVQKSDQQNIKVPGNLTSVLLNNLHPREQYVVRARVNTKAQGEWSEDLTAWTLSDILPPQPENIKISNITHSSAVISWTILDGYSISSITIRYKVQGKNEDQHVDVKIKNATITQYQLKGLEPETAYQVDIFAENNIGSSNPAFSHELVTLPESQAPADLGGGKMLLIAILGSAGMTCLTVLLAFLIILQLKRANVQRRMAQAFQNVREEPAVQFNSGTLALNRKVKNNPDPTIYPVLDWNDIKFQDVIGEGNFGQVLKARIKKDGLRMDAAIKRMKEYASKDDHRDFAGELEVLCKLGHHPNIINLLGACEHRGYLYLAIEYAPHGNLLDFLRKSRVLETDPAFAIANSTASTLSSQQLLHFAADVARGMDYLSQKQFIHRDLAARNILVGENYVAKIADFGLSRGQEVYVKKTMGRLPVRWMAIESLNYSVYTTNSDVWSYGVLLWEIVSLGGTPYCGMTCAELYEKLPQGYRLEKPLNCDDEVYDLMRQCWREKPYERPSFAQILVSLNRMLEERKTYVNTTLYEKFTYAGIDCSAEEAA

CLK1 (human) = CLK1 (human) (UniProt P49759)
PIM2 (human) = PIM2 (human) (UniProt Q9P1W9)
CAMK4 (human) = CAMK4 (human) (UniProt Q16566)
MAP2K1 (human) = MAP2K1 (human) (UniProt Q02750)
Chain of MAP2K1 (human) (Q02750 whole entry, looked up): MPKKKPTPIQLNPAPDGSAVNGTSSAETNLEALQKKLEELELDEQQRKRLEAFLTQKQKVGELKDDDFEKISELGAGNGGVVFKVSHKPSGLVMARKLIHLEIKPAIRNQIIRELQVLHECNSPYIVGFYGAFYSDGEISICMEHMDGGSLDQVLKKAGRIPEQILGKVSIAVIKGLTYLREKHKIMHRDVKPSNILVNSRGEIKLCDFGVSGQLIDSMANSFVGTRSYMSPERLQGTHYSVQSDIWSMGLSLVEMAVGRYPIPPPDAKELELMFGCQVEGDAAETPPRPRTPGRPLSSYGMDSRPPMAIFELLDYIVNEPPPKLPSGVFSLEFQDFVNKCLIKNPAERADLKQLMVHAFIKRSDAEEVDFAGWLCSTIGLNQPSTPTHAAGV

residual activity (MAP3K8 (human)): 95.5%
residual activity (CDK7 CCNH MNAT1 (human)): 102%
residual activity (PRKCG (human)): 91.5%
residual activity (SLK (human)): 108%
residual activity (EGFR (human)): 96.5%
residual activity (ROCK1 (human)): 96%
residual activity (PTK2B (human)): 110%
residual activity (CDK3 CCNE1 (human)): 105%
residual activity (STK16 (human)): 102%
residual activity (SRMS (human)): 93.5%
residual activity (MAP4K2 (human)): 91.5%
residual activity (ROS1 (human)): 110%
residual activity (WNK2 (human)): 93%
residual activity (ULK2 (human)): 99.5%
residual activity (DAPK1 (human)): 96.5%
residual activity (NTRK3 (human)): 102%
residual activity (BLK (human)): 81.5%
residual activity (BMX (human)): 102%
residual activity (CDK1 CCNB1 (human)): 99%
residual activity (SIK2 (human)): 108%
residual activity (EPHA5 (human)): 77%
residual activity (NEK3 (human)): 107%
residual activity (RPS6KA5 KD1 KD2 (human)): 108%
residual activity (RAF1 (human)): 97%
residual activity (GRK6 (human)): 104%
residual activity (TXK (human)): 85.5%
residual activity (LCK (human)): 99%
residual activity (GRK5 (human)): 101%
residual activity (BTK (human)): 103%
residual activity (STK11 (human)): 106%
residual activity (CDK2 CCNE1 (human)): 96%
residual activity (MAPKAPK5 (human)): 86%
residual activity (FGFR3 (human)): 80.5%
residual activity (EPHB1 (human)): 90.5%
residual activity (STK39 (human)): 95.5%
residual activity (MAP3K10 (human)): 103%
residual activity (AURKB (human)): 104%
residual activity (CSF1R (human)): 95%
residual activity (TEK (human)): 95.5%
residual activity (CLK1 (human)): 99%
residual activity (PIM2 (human)): 99%
residual activity (CAMK4 (human)): 87.5%
residual activity (MAP2K1 (human)): 102%
SMILES: CC[C@H](C)n1cc(C)c2c(C(=O)NCc3c(C)cc(C)[nH]c3=O)cc(-c3ccc(N4CCNCC4)nc3)cc21
residual activity (NEK9 (human)): 102%
